Results taken from ChEMBL document CHEMBL1133069, “Highly sensitive and rapid detection of antibody catalysis by luminescent bacteria” (Bioorg Med Chem Lett, 2000).

How the values were obtained:
[1] = Kcat in bacterium VhM42
[2] = Km in bacterium VhM42

k cat [1]: 1.67e-05 s⁻¹
Km [2]: 190 µM
Structure (SMILES): CCCCCCCCC(O)CC(C)=O (configuration not stated)
